Measurements from ChEMBL document CHEMBL2331407, “Mexican antidiabetic herbs: valuable sources of inhibitors of α-glucosidases” (J Nat Prod, 2013).
Values after ≈ are worked out from the molar mass of the structure shown. One block for each compound: values may come before it.

Assays:
Alpha-glucosidase MAL12 [1] = target: T1, Alpha-glucosidase MAL12 (Saccharomyces cerevisiae S288c, UniProt P53341); assay: Mixed type inhibition of baker's yeast alpha-glucosidase by Dixon plot analysis
Alpha-glucosidase MAL12 [2] = target: T1, Alpha-glucosidase MAL12; assay: (§1) Inhibition of baker's yeast alpha-glucosidase
[3] = target: Oligo-1,6-glucosidase IMA1 (Saccharomyces cerevisiae S288c) (UniProt P53051); assay: as §1
[4] = system: alpha-glucosidase (Rattus norvegicus); assay: Inhibition of rat intestinal alpha-glucosidase; design: concentration or dose not given beside the values; settings: concentration not given here
Rattus norvegicus = species: Rattus norvegicus; assay: Gastroprotective activity in rat assessed as protection against ethanol-induced gastric injury; assay type: functional, Stomach; settings: for ED50: Rattus norvegicus, Stomach
[5] = Inhibition of rat intestinal alpha-glucosidase
[6] = target: alpha-glucosidase (Mus musculus); assay: Inhibition of alpha-glucosidase from mouse intestine crude homogenate

Oligo-1,6-glucosidase IMA1 (Saccharomyces cerevisiae S288c), sequence (P53051 whole entry): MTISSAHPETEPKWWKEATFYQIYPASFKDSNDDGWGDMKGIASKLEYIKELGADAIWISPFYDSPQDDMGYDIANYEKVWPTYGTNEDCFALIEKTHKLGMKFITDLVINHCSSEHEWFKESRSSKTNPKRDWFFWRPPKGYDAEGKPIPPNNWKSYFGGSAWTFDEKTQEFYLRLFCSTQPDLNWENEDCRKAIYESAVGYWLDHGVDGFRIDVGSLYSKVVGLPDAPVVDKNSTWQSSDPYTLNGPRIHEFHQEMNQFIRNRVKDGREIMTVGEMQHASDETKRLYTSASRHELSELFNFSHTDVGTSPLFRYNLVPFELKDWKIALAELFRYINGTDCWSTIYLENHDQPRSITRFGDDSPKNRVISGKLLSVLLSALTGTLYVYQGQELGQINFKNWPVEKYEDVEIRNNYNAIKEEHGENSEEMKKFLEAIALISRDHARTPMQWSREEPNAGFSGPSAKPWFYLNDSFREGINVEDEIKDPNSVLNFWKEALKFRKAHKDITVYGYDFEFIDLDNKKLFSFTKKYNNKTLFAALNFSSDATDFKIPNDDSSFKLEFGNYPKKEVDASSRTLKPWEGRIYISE
T1 sequence (P53341 whole entry): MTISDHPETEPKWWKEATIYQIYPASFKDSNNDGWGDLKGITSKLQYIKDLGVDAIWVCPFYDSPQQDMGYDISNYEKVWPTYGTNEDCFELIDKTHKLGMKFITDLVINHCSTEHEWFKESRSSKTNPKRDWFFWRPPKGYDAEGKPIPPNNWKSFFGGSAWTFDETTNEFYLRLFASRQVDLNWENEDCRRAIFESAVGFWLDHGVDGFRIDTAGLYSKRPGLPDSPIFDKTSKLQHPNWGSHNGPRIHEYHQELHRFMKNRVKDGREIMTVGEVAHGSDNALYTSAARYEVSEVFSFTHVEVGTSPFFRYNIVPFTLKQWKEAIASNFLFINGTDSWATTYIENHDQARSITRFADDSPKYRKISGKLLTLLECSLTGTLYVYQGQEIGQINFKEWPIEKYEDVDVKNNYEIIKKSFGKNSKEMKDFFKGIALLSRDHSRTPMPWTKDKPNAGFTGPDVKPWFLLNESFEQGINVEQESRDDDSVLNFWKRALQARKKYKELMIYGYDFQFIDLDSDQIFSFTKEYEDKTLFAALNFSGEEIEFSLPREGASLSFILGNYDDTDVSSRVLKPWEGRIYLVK

Structure (SMILES): CCCC=C1OC(=O)c2ccccc21 [(E)-BUTYLIDENEPHTHALIDE]
- Ki (Alpha-glucosidase MAL12 [1]): 4.86 µM
- IC50 (Alpha-glucosidase MAL12 [2]): 2350 µM
- inhibition [3]: Dose-dependent effect

Structure (SMILES): C=C1C(=O)O[C@@H]2C[C@@H](C)/C=C\C(=O)[C@](C)(O)[C@H](OC(C)=O)[C@@H](OC(=O)/C(C)=C/C)[C@@H]12 [CALEIN C]
- IC50 (Alpha-glucosidase MAL12 [2]): 280 µM

Structure (SMILES): O=C(/C=C/c1ccc(O)c(O)c1)O[C@@H]1C[C@](O)(C(=O)O)C[C@@H](O)[C@H]1O [CHLOROGENIC ACID]
- Activity (Rattus norvegicus): 74.04%
- ED50 (Rattus norvegicus): 26 mg/kg

Structure (SMILES): COc1cc(O)c2c(-c3ccc(O)c(O)c3)cc(=O)oc2c1
- IC50 (Alpha-glucosidase MAL12 [2]): 62 µM
- inhibition [3]: Dose-dependent effect

Structure (SMILES): O=c1cc(-c2ccc(O)c(O)c2)c2c(O)cc(O)cc2o1
- IC50 (Alpha-glucosidase MAL12 [2]): 208 µM
- inhibition [3]: Dose-dependent effect

Structure (SMILES): CC1(C)C=Cc2c(ccc(C(=O)CO)c2O)O1
- IC50 (Alpha-glucosidase MAL12 [2]): 420 µM

Structure (SMILES): COc1cc(/C=C/C(=O)OC[C@H]2O[C@@H](O[C@H]3[C@H](Oc4cc5c(O[C@@H]6O[C@H](CO)[C@@H](O)[C@H](O)[C@H]6O)cc(O)cc5[o+]c4-c4ccc(O)c(O)c4)O[C@H](COC(=O)/C=C/c4ccc(O)c(O)c4)[C@@H](O)[C@@H]3O)[C@H](O)[C@@H](O)[C@@H]2O)ccc1O
- IC50 [5]: 193 µM

Structure (SMILES): CC(C)=CC(=O)O[C@H]1C[C@@H](O)[C@@]2(C)CO[C@H]3[C@@H](O)[C@@]4(C)C5=CC[C@@H](c6ccoc6)[C@]5(C)CC[C@@H]4[C@]1(C)[C@@H]32 [MELIACINOLIN]
- IC50 [6]: 32.18 µg/mL (≈ 63 µM)

Structure (SMILES): COc1cc(-c2oc3cc(O)cc(O)c3c(=O)c2O)ccc1O [ISORHAMNETIN]
- IC50 (Alpha-glucosidase MAL12 [2]): 160 µM

Structure (SMILES): COc1cc(/C=C/C(=O)OC[C@H]2O[C@@H](O[C@H]3[C@H](Oc4cc5c(O[C@@H]6O[C@H](CO)[C@@H](O)[C@H](O)[C@H]6O)cc(O)cc5[o+]c4-c4ccc(O)c(OC)c4)O[C@H](COC(=O)/C=C/c4ccc(O)c(O)c4)[C@@H](O)[C@@H]3O)[C@H](O)[C@@H](O)[C@@H]2O)ccc1O
- IC50 [5]: 200 µM

Structure (SMILES): C[C@H]([C@H](O)[C@@H](O)[C@@H](O)C(C)(C)O)[C@H]1CC[C@@]2(C)[C@@H]3CC=C4[C@@H](CC[C@H](O[C@@H]5O[C@H](CO[C@@H]6O[C@H](CO)[C@@H](O)[C@H](O)[C@H]6O)[C@@H](O)[C@H](O)[C@H]5O)C4(C)C)[C@]3(C)CC[C@]12C
- inhibition [4]: 21.7%

Structure (SMILES): C[C@H](CC(O)C(O)C(C)(C)O)[C@H]1CC[C@@]2(C)[C@@H]3CC=C4[C@@H](CC[C@H](O[C@@H]5O[C@H](CO[C@@H]6O[C@H](CO)[C@@H](O)[C@H](O)[C@H]6O)[C@@H](O)[C@H](O)[C@H]5O)C4(C)C)[C@]3(C)CC[C@]12C (stereo partly specified)
- inhibition [4]: 13%

Structure (SMILES): CC(C)=C[C@H](O[C@@H]1O[C@H](CO)[C@@H](O)[C@@H](O)[C@H]1O)[C@@H](O)[C@@H](C)[C@H]1CC[C@@]2(C)[C@@H]3C=C[C@@]45OC[C@]3(CC[C@]12C)[C@@H]4CC[C@H](O[C@@H]1O[C@H](CO)[C@@H](O)[C@H](O)[C@H]1O)C5(C)C
- inhibition [4]: 18.6%

Structure (SMILES): COc1cc(O[C@@H]2O[C@H](CO[C@@H]3OC[C@](O)(CO)[C@H]3O)[C@@H](O)[C@H](O)[C@H]2O)c2c(-c3ccc(O)c(O)c3)cc(=O)oc2c1
- Activity (Rattus norvegicus): 68.85%
- ED50 (Rattus norvegicus): 15 mg/kg

Second part, the compound after the results:

- inhibition [4]: 12.5%
Structure (SMILES): C[C@H](C/C=C/C(C)(C)O)[C@H]1CC[C@@]2(C)[C@@H]3C=C[C@@]45OC[C@]3(CC[C@]12C)[C@@H]4CC[C@H](O[C@@H]1O[C@H](CO)[C@@H](O)[C@@H](O)[C@H]1O)C5(C)C

- inhibition [4]: 10.9%
Structure (SMILES): CO[C@@H]1O[C@]23C=C[C@@H]4[C@@]1(CC[C@]1(C)[C@@H]([C@H](C)C/C=C/C(C)(C)O)CC[C@@]41C)[C@@H]2CC[C@H](O[C@@H]1O[C@H](CO)[C@@H](O)[C@H](O)[C@H]1O)C3(C)C

- inhibition [4]: 13.6%
Structure (SMILES): COC(C)(C)/C=C/C[C@@H](C)[C@H]1CC[C@@]2(C)[C@@H]3CC[C@@]45OC(=O)[C@]3(CC[C@]12C)[C@@H]4CC[C@H](O[C@@H]1O[C@H](CO)[C@@H](O)[C@@H](O)[C@H]1O)C5(C)C

- inhibition [4]: 15.8%
Structure (SMILES): CO[C@H]1C=C2[C@@H](CC[C@H](O[C@@H]3O[C@H](CO)[C@@H](O)[C@@H](O)[C@H]3O)C2(C)C)[C@]2(C)CC[C@]3(C)[C@@H]([C@H](C)C/C=C/C(C)(C)O)CC[C@@]3(C)[C@H]12

- inhibition [4]: 11.5%
Structure (SMILES): COC(C)(C)/C=C/C[C@@H](C)[C@H]1CC[C@@]2(C)[C@@H]3C=C[C@@]45OC[C@]3(CC[C@]12C)[C@@H]4CC[C@H](O[C@@H]1O[C@H](CO)[C@@H](O)[C@H](O)[C@H]1O)C5(C)C

- inhibition [4]: 10.1%
Structure (SMILES): C[C@H](C/C=C/C(C)(C)O)[C@H]1CC[C@@]2(C)[C@@H]3C=C[C@@]45OC[C@]3(CC[C@]12C)[C@@H]4CC[C@H](O[C@@H]1O[C@H](CO)[C@@H](O)[C@H](O)[C@H]1O)C5(C)C
